From ChEMBL document CHEMBL4033685, “C21-steroidal pregnane sapogenins and their derivatives as anti-inflammatory agents” (Bioorg Med Chem, 2017)
Active and inactive are the calls of the source. The rule behind the calls is not given here.

Legend:
[1] = target: Toll-like receptor 3 (Homo sapiens) (UniProt O15455); experiment: Antagonist activity at TLR3 in human THP1 cells assessed as inhibition of poly IC-stimulated IL-6 mRNA level after 16 hrs by RT-PCR method; assay type: cell-based
Toll-like receptor 4 [2] = target: T1, Toll-like receptor 4 (Homo sapiens, UniProt O00206); experiment: Antagonist activity at TLR4 in human THP1 cells assessed as increase in LPS-stimulated NFkappaB p65 phosphorylation at 10 uM after 3 hrs by Western blot analysis; assay type: cell-based
[3] = target: Toll-like receptor 3 (Homo sapiens) (UniProt O15455); experiment: Antagonist activity at TLR3 in human THP1 cells assessed as inhibition of poly IC-stimulated IL-1beta level at 10 uM by bead based immunoassay; assay type: cell-based
[4] = target: Toll-like receptor 3 (Homo sapiens) (UniProt O15455); experiment: Antagonist activity at TLR3 in human THP1 cells assessed as inhibition of poly IC-stimulated RANTES mRNA level after 16 hrs by RT-PCR method; assay type: cell-based
Toll-like receptor 4 [5] = target: T1, Toll-like receptor 4; experiment: Antagonist activity at TLR4 in human THP1 cells assessed as inhibition of LPS-stimulated RANTES mRNA level after 16 hrs by RT-PCR method; assay type: cell-based
Toll-like receptor 4 [6] = target: T1, Toll-like receptor 4; experiment: Antagonist activity at TLR4 in human THP1 cells assessed as inhibition of LPS-stimulated IL-6 mRNA level after 16 hrs by RT-PCR method; assay type: cell-based
Homo sapiens = organism: Homo sapiens; experiment: Inhibition of TNFalpha-stimulated NF-kB signaling pathway (unknown origin) expressed in human AD293 cells after 4 hrs by luciferase reporter gene assay; assay type: cell-based
[7] = target: Toll-like receptor 2 (Homo sapiens) (UniProt O60603); experiment: Antagonist activity at TLR2 in human THP1 cells assessed as inhibition of PGN-stimulated IL-6 mRNA level after 16 hrs by RT-PCR method; assay type: cell-based
[8] = target: Toll-like receptor 2 (Homo sapiens) (UniProt O60603); experiment: Antagonist activity at TLR2 in human THP1 cells assessed as inhibition of PGN-stimulated RANTES mRNA level after 16 hrs by RT-PCR method; assay type: cell-based
Toll-like receptor 4 [9] = target: T1, Toll-like receptor 4; experiment: Antagonist activity at TLR4 (unknown origin) expressed in human AD293 cells assessed as inhibition of LPS/ATP-stimulated TLR4/NF-kB signaling pathway after 16 hrs by luciferase reporter gene assay; assay type: cell-based
Toll-like receptor 4 [10] = target: T1, Toll-like receptor 4; experiment: Antagonist activity at TLR4 in human THP1 cells assessed as inhibition of LPS-stimulated NF-kB non-canonical signaling pathway by measuring decrease in p100/p52 phosphorylation at 10 uM after 3 hrs by Western blot analysis; assay type: cell-based
THP-1 [11] = experiment: Downregulation of IkBalpha protein expression in LPS-stimulated human THP1 cells at 10 uM after 3 hrs by Western blot analysis; assay type: functional, cell-based
Toll-like receptor 4 [12] = target: T1, Toll-like receptor 4; experiment: Antagonist activity at TLR4 in human THP1 cells assessed as inhibition of LPS-stimulated RANTES mRNA level at 10 uM after 16 hrs by RT-PCR method; assay type: cell-based
Toll-like receptor 4 [13] = target: T1, Toll-like receptor 4; experiment: Antagonist activity at TLR4 in human THP1 cells assessed as inhibition of LPS-stimulated NFkappaB p65 protein expression at 10 uM after 3 hrs by Western blot analysis; assay type: cell-based
[14] = target: Toll-like receptor 3 (Homo sapiens) (UniProt O15455); experiment: Antagonist activity at TLR3 in human THP1 cells assessed as inhibition of poly IC-stimulated IL-6 mRNA level at 10 uM after 16 hrs by RT-PCR method; assay type: cell-based
[15] = target: Toll-like receptor 2 (Homo sapiens) (UniProt O60603); experiment: Antagonist activity at TLR2 in human THP1 cells assessed as inhibition of PGN-stimulated IL-6 mRNA level at 10 uM after 16 hrs by RT-PCR method; assay type: cell-based
[16] = target: Transcription factor p65 (Homo sapiens) (UniProt Q04206); experiment: Upregulation of NF-kB p65 phosphorylation (unknown origin) expressed in human AD293 cells at 10 uM after 3 hrs by Western blot analysis; assay type: cell-based
[17] = target: Toll-like receptor 2 (Homo sapiens) (UniProt O60603); experiment: Antagonist activity at TLR2 in human THP1 cells assessed as inhibition of PGN-stimulated RANTES mRNA level at 10 uM after 16 hrs by RT-PCR method; assay type: cell-based
Toll-like receptor 4 [18] = target: T1, Toll-like receptor 4; experiment: Antagonist activity at TLR4 in human THP1 cells assessed as inhibition of LPS-stimulated IL-6 mRNA level at 10 uM after 16 hrs by RT-PCR method; assay type: cell-based
Toll-like receptor 4 [19] = target: T1, Toll-like receptor 4; experiment: Antagonist activity at TLR4 in human THP1 cells assessed as inhibition of LPS-stimulated NF-kB canonical signaling pathway by measuring decrease in IkBalpha phosphorylation at 10 uM after 3 hrs by Western blot analysis; assay type: cell-based
[20] = target: Toll-like receptor 3 (Homo sapiens) (UniProt O15455); experiment: Antagonist activity at TLR3 in human THP1 cells assessed as inhibition of poly IC-stimulated RANTES mRNA level at 10 uM after 16 hrs by RT-PCR method; assay type: cell-based
THP-1 [21] = experiment: Downregulation of IkBalpha protein expression in human THP1 cells at 10 uM after 3 hrs by Western blot analysis; assay type: functional, cell-based

Toll-like receptor 2 (Homo sapiens), sequence (O60603 whole entry): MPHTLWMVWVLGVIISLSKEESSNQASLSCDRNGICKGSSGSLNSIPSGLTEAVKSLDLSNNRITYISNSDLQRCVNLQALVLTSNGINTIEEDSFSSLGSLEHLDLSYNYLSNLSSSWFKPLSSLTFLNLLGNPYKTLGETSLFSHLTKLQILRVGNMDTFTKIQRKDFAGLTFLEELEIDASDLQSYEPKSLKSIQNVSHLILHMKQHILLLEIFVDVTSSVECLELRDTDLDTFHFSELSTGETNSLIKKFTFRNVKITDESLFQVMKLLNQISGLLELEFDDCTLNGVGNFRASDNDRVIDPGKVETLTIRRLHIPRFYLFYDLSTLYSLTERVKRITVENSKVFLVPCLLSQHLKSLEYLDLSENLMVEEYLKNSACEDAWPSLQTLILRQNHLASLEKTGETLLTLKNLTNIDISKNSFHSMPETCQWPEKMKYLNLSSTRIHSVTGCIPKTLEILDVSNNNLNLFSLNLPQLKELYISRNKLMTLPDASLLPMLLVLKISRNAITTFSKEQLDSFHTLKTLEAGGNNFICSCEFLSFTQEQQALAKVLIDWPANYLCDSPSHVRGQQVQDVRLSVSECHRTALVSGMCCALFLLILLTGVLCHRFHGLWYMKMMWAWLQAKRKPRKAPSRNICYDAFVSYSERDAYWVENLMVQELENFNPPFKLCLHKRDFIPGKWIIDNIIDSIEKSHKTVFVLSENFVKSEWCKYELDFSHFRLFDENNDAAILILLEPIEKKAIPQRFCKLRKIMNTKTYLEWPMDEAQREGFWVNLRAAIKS
Toll-like receptor 3 (Homo sapiens), sequence (O15455 whole entry): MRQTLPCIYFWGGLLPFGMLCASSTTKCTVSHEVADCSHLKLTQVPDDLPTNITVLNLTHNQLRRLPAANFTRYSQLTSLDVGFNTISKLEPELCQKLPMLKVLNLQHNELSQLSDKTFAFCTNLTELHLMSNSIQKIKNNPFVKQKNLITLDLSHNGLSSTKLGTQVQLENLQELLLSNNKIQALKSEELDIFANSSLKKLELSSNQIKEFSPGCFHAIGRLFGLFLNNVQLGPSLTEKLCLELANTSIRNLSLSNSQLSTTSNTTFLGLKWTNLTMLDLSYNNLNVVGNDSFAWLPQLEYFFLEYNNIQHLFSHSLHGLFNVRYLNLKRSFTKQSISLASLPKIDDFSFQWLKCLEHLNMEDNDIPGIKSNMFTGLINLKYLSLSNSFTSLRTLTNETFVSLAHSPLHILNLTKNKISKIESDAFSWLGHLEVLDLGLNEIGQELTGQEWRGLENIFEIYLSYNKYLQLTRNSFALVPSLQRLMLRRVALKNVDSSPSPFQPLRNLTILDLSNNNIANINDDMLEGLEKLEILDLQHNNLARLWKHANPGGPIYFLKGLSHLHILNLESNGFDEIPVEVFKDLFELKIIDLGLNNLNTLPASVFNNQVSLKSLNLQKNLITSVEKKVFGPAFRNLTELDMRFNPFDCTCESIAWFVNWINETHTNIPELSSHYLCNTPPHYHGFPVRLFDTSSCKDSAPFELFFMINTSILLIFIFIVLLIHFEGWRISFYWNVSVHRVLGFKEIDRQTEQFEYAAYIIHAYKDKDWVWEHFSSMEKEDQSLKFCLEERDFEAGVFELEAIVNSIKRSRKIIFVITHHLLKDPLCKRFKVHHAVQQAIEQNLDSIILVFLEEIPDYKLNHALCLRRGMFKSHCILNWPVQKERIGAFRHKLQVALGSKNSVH
T1 sequence (O00206 whole entry): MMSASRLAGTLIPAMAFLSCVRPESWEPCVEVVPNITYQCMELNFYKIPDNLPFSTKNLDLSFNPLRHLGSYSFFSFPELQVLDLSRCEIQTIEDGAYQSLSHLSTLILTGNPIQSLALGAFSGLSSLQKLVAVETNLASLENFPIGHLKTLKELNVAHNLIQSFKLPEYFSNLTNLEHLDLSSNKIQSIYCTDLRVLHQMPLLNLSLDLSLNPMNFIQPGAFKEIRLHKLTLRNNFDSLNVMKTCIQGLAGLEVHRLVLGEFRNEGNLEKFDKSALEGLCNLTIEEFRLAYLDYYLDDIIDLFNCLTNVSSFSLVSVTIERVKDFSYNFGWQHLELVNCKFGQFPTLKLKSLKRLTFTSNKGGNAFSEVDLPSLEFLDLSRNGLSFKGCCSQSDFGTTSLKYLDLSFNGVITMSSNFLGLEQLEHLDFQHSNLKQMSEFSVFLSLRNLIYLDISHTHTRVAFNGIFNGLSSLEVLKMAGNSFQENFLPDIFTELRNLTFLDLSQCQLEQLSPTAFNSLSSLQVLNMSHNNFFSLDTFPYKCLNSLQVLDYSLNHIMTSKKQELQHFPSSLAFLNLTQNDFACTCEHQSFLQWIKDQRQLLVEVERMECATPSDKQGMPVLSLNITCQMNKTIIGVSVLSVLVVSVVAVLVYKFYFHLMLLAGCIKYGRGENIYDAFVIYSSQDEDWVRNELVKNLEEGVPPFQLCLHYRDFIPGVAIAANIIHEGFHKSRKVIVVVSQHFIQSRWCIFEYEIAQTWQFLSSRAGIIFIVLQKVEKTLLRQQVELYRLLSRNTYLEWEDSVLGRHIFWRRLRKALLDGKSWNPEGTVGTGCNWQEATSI
Transcription factor p65 (Homo sapiens), sequence (Q04206 whole entry): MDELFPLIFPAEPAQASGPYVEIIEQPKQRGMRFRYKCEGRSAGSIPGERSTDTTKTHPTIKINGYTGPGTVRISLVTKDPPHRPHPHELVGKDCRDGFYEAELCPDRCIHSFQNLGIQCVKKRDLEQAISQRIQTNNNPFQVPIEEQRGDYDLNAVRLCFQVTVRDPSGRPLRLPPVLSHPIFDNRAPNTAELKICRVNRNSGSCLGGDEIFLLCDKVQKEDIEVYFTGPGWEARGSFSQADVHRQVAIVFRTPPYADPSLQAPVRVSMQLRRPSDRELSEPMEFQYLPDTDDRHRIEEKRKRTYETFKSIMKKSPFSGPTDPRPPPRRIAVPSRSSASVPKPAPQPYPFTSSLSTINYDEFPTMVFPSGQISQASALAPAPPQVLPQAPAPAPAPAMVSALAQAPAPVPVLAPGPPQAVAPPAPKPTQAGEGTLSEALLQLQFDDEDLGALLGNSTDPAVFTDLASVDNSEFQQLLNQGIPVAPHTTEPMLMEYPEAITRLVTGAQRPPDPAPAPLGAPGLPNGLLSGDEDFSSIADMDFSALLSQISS

In the case of `COc1ccc(/C=C/C(=O)O[C@H]2CC[C@@]3(C)C(=CC[C@]4(O)[C@@H]3C[C@@H](OC(=O)/C=C(\C)C(C)C)[C@@]3(C)[C@]4(O)CC[C@@]3(O)C(C)=O)C2)cc1`, the inhibition [1] is reported as “Dose-dependent effect”, the inhibition (Toll-like receptor 4 [2]) is reported as “Active” and the inhibition [3] is reported as “Active”. For the same molecule, the inhibition [4] was “Dose-dependent effect”, the inhibition (Toll-like receptor 4 [5]) was “Dose-dependent effect” and the inhibition (Toll-like receptor 4 [6]) was “Dose-dependent effect”. For the same molecule, the EC10 (Homo sapiens) was greater than 10 µM, the inhibition [7] was “Dose-dependent effect” and the inhibition [8] was “Dose-dependent effect”. For the same molecule, the EC50 (Toll-like receptor 4 [9]) was 3.95 µM and the inhibition (Toll-like receptor 4 [10]) was “inactive”.

With `CC(=O)[C@]1(O)CC[C@@]2(O)[C@]1(C)[C@H](OC(=O)c1ccc(O)cc1)C[C@@H]1[C@@]3(C)CC[C@H](OC(=O)CCl)CC3=CC[C@]12O` the inhibition (Toll-like receptor 4 [2]) was “inactive”, the inhibition [3] was “Active” and the Activity (THP-1 [11]) was “Active”. For the same molecule, the inhibition (Toll-like receptor 4 [12]) was “Active”, the inhibition (Toll-like receptor 4 [13]) was “Active” and the inhibition [14] was “Active”. For the same molecule, the inhibition [15] was “Active”, the EC10 (Homo sapiens) was greater than 10 µM and the Activity [16] was “Active”. The inhibition [17] was “Active”, the inhibition (Toll-like receptor 4 [18]) was “Active” and the inhibition (Toll-like receptor 4 [19]) was “inactive”. For the same molecule, the inhibition [20] was “Active”, the EC50 (Toll-like receptor 4 [9]) was 3.27 µM and the Activity (THP-1 [21]) was “Active”. For the same molecule, the inhibition (Toll-like receptor 4 [10]) was “inactive”.
